# From paper PMC7238232, “Acamprosate Is a Substrate of the Human Organic Anion Transporter (OAT) 1 without OAT3 Inhibitory Properties: Implications for Renal Acamprosate Secretion and Drug–Drug Interactions” (Pharmaceutics, 2020)
# Molecular target: T1, OAT1 (Homo sapiens, UniProt Q4U2R8)
# T1 sequence (Q4U2R8 1-563): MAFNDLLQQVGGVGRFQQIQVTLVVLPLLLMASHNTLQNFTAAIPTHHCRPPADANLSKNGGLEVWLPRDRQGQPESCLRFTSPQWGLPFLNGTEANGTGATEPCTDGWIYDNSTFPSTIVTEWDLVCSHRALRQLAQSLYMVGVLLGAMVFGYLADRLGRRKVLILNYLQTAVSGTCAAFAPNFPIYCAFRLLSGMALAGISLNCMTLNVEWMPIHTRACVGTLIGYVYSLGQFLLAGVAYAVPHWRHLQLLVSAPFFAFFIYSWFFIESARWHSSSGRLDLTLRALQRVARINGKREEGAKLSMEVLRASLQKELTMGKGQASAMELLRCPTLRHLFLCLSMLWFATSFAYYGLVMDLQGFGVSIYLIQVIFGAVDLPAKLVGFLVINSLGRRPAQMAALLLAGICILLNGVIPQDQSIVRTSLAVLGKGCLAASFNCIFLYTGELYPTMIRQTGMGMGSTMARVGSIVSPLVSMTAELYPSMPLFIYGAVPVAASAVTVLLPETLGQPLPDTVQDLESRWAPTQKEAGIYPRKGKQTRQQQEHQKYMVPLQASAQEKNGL
# Experiment: [14C]-PAH uptake and its inhibition in HEK293-Flp-In OAT1 cells
# Protocol: All uptake experiments were performed on 24- or 96-well plates. Before the experiment initiation, the cells were incubated with either 500 or 200 µL∙well^−1 prewarmed buffer for 10 min at 37 °C in a microplate incubator (VWR International AB, Stockholm, Sweden), without shaking. […] The experiment was stopped by adding 200 µL∙well^−1 of ice-cold buffer and subsequent rinse three times with the same amount of buffer. In Lab. 1 the sample analysis of the OAT1/OAT3/mock studies consisted in removing the rinsing buffer and lysing the cells with 70 µL 1M NaOH, following by incubation for 60 min at 37 °C and 100 rpm. A total of 50 µL of cell lysate from each well was transferred to 96-well Luma plates bottom coated with dry scintillant. Then, 2∙20 µL of each donor and three 50 µL blank samples were applied on the same plate. The dry plates were covered with transparent seals and analyzed using a TopCount NXT Microplate Scintillation and Luminescence Counter (Perkin Elmer, Waltham, MA, USA). The remaining 20 µL cell lysate was neutralized with 20 µL 1M HCl∙well^−1, samples were mixed thoroughly and the total protein content in all the wells was measured using a BCA protein assay kit, microplate method, and a Tecan Safire II fluorometer (Tecan Austria GmbH, Grödig, Austria). For the experiments in Lab. 2, the cells were lysed by adding 200 µL 0.1% Triton X-100 and incubated for 5 min at 37 °C and 100 rpm. […] The total protein content was measured by using a BCA protein assay kit and a FLUOStar Omega fluorescence microplate reader (BMG Labtech, Ortenberg, Germany). The protein assay for the OAT3 and mock cell lines was performed in four independent wells of each cell line, seeded and treated in the same manner as the cells used in the uptake assay. For all the OAT1, OAT3, and mock isotope uptake studies, the radiolabelled tracer accumulation (pmol) in each well was calculated by first determining the activity of the isotope (DPM∙pmol^−1) from the radioactivity (DPM) of the donor sample divided by the theoretical isotope concentration (pmol), then dividing the total radioactivity in the well (DPM) to the specific activity of the isotope (DPM∙pmol^−1).
# A range of preincubation solutions was prepared at the same concentrations of acamprosate applied in the inhibition assays. Acamprosate was dissolved in HBSS buffered with 10 mM HEPES and the pH was adjusted to 7.40 ± 0.01. The preincubation solutions were prewarmed to 37 °C and applied to the corresponding cells after removing the cell growth medium. The preincubation was done for 3 h, at 37 °C, without shaking. After the preincubation, the solutions were removed, and the inhibition experiment was performed as described in the Section 2.6.
# The obtained intracellular amounts (pmol) were normalized to the assay time (min) and cell surface area (cm^2) or protein amount (mg protein) to obtain a term hereafter referred to as uptake rate. The uptake rate of acamprosate as a function of concentration was fitted to a Michaelis–Menten type equation which includes a saturable and a non-saturable uptake component, (1) V=Vmax · [S]/Km +[S]+P · [S] where V is the substrate uptake rate; Vmax is the maximal uptake rate; P is a constant related to non-saturable apparent uptake, i.e., factors such as passive diffusion, unspecific binding and residual compound present after washing steps, and [S] is the substrate concentration (µM). […] Assuming competitive interaction, equilibrium dissociation constants, Ki, were calculated from the IC50 value for each substrate/inhibitor pair, at substrate Km, using the Cheng–Prusoff equation [24].
smiles,measurement,setting,value
"CC(=O)NCCCS(=O)(=O)O [acamprosate, acetylhomotaurinate]",effect on uptake of [14C]-PAH in OAT1 expressing cells,"9.5 µM [14C]-PAH, 200 µM PAH, 300 µM probenecid, 1000 and 10,000 µM acamprosate, Lab. 1",significantly decreased
same,IC50,"IC50, 3 h, inhibition of PAH uptake via OAT1, 9.5 µM [14C]-PAH, after 3 h preincubation with inhibitor, Lab. 2",582 µM
same,IC50,"IC50, inhibition of PAH uptake via OAT1, 9.5 µM [14C]-PAH, 3 min, applied concomitantly, Lab. 2",638 µM
same,IC50,"IC50, inhibition of PAH uptake via OAT1, 9.5 µM [14C]-PAH, 5 min, Lab. 1",1390 µM
same,Ki,"Ki of acamprosate on PAH uptake, fit to competitive kinetics (Equation 4), Lab. 2",1230 ± 341 µM
same,Ki,"Ki, inhibition of PAH uptake via OAT1, 3 h, Cheng-Prusoff, after 3 h preincubation, Lab. 2",287 µM
same,Ki,"Ki, inhibition of PAH uptake via OAT1, Cheng-Prusoff from IC50, competitive inhibition assumed, Lab. 1",1140 µM
same,Ki,"Ki, inhibition of PAH uptake via OAT1, Cheng-Prusoff, applied concomitantly, Lab. 2",315 µM
same,effect of 3 h preincubation on inhibition of [14C]-PAH uptake,"OAT1 expressing cells, 0–10,000 µM acamprosate, 200 µM PAH, 300 µM probenecid, Lab. 2",no apparent effect
same,Ki,OAT1 inhibiting Ki-value,638 µM
same,mechanism of inhibition of OAT1-mediated PAH transport,"PAH uptake with 0, 625, 1250 or 2500 µM acamprosate, Lab. 2",competitive
same,Ki,"human, Ki values, inhibition of OAT1-mediated transport of PAH, range over the two laboratories",582 to 1230 µM
same,IC50,"human, hek293-flp-in oat1 cells, IC50, p-Aminohippuric Acid (PAH), input for DDI index, Table A1, for acamprosate interval of obtained values",287 to 1230 µM
same,IC50,"log IC50 ± log S.E.M., 3 h, inhibition of PAH uptake via OAT1, after 3 h preincubation, Lab. 2, log of IC50 in µM",631 µM
same,IC50,"log IC50 ± log S.E.M., inhibition of PAH uptake via OAT1, 9.5 µM [14C]-PAH, 5 min, Lab. 1, log of IC50 in µM",1260 µM
same,IC50,"log IC50 ± log S.E.M., inhibition of PAH uptake via OAT1, 3 min, applied concomitantly, Lab. 2, log of IC50 in µM",631 µM
